The record followed here is patent US4493785A, “Anthraquinone compounds” (Imperial Chemical Industries PLC, priority 1982, dated 1985).

Holding throughout (format): physicochemical
Series [1] is described as follows: Order parameter (S) of the dye in liquid crystal material. The note with it: for Order Parameter (S): liquid crystal material E 43, 20° C. As to the method:
(§1) (i) Order parameters, solubilities and stabilities reported in Tables I to V were measured in the liquid crystal material, E 43, which is referred to as Host B in UK Specification No. 2081736A and is available from BDH Ltd of Poole, Dorset. Measurements were made at 20° C. unless otherwise indicated.
(§2) (iii) The liquid crystal materials in Table V are:
(§3) ZLI 1695: Available from E. Merck Co, Darmstadt, W. Germany;
(§4) FBCO Ester: Host 12 of UK application No. 8205153.
(§5) (iv) In Table V "S" means order parameter and "Sol" means solubility (wt %) in the appropriate liquid crystal material.

The nature of series [2]: Solubility (wt %) of the dye in liquid crystal material. The note with it: for Solubility: liquid crystal material E 43, 20° C. As to the method:
as §1, §2, §3, §4, §5

Series [3] in a line: Stability to irradiation with 1 kW phosphor-coated mercury vapour lamp. The note with it: E 43, 1 kW mercury vapour lamp, 30° C. As to the method:
as §1
(ii) Stabilities were measured as the percentage decrease in absorption at the absorption maximum after the indicated period of irradiation with a 1 kW phosphor-coated, mercury vapour lamp at 30° C.

Another series in a line: Extinction coefficient.
Setting [4] is: liquid crystal material FBCO Ester, 20° C.
Setting [5] is: liquid crystal material ZLI 1132, 20° C.
The mark [6] stands for this setting: liquid crystal material ZLI 1695, 20° C.

Turning to `CC(CCCc1cc(N)c2c(c1O)C(=O)c1c(O)c(CCCC(C)CC(C)(C)C)cc(N)c1C2=O)CC(C)(C)C` (centres unmarked) [--C2 H4 CH(CH3)CH2 C(CH3)3, reference compound], the “Order Parameter (S)” value in series [1] was determined as 0.71. This molecule also displayed a Solubility in series [2] of 1.6 wt %.
Take `CCC(CC)Cc1cc(N)c2c(c1O)C(=O)c1c(O)c(CC(CC)CC)cc(N)c1C2=O` [--CH(C2 H5)2]: the “Order Parameter (S)” value in series [1] was determined as 0.66.
Still for that read-out and setting: for `CCC(C)Cc1cc(N)c2c(c1O)C(=O)c1c(O)c(CC(C)CC)cc(N)c1C2=O` (centres unmarked) [--CH(CH3)CH2 CH3] the value was 0.68.
For `CCCCCc1cc(N)c2c(c1O)C(=O)c1c(O)c(CCCCC)cc(N)c1C2=O` [Example 1c, 2,7-Di-n-pentyl-4,5-diamino-chrysazin], the “Order Parameter (S)” value in series [1] was 0.77. Besides, the “S (order parameter)” value was found to be 0.69 in series [1] (setting [4]), 0.77 in series [1] (setting [5]) and 0.79 in series [1] (setting [6]). This molecule gave a Solubility in series [2] of 8.0 wt %. The “Sol (solubility)” value was found to be 3 wt % in series [2] (setting [4]), 10.0 wt % in series [2] (setting [5]) and 6.5 wt % in series [2] (setting [6]). Moreover, the results for the “Stability (percentage decrease in absorption at the absorption maximum)” value in series [3] (100 hr irradiation) and in series [3] (2000 hr irradiation) were 97% and 73%, respectively.
Regarding `CCCCCCCc1cc(N)c2c(c1O)C(=O)c1c(O)c(CCCCCCC)cc(N)c1C2=O` [Example 2c, 2,7-Di-n-heptyl-4,5-diaminochrysazin], the “Order Parameter (S)” value in series [1] is listed as 0.78. The entries for the “S (order parameter)” value in series [1] (setting [4]), in series [1] (setting [5]) and in series [1] (setting [6]) were 0.70, 0.78 and 0.80, respectively. In addition, the Solubility in series [2] is 5.5 wt %. The “Sol (solubility)” value in series [2] (setting [4]) is recorded as 3 wt %; in series [2] (setting [5]), 7.0 wt %. Also, the results for the “Stability (percentage decrease in absorption at the absorption maximum)” value in series [3] (400 hr irradiation) and in series [3] (2000 hr irradiation) were 92% and 87%, respectively.
Turning to `CCCCCCc1cc(N)c2c(c1O)C(=O)c1c(O)c(CCCCCC)cc(N)c1C2=O` [Example 3, 2,7-Di-n-hexyl-4,5-diaminochrysazin], the “Order Parameter (S)” value in series [1] was 0.76. In series [2], this molecule gave a Solubility of 4.3 wt %.
In the same order, the values of `CCCCCCCCc1cc(N)c2c(c1O)C(=O)c1c(O)c(CCCCCCCC)cc(N)c1C2=O` [Example 4, 2,7-di-n-octyl-4,5-diaminochrysazin] are 0.73 and 13.0 wt %.
For the molecule `CCCCCCCc1cc(N)c2c(c1O)C(=O)c1c(O)c(CCCCCCC)cc(NC)c1C2=O` [Example 5b, 2,7-di-n-heptyl-4-amino-5-methylaminochrysazin], in series [1], the “Order Parameter (S)” value amounted to 0.68. The molecule further returned a Solubility in series [2] of 0.5 wt %. Also, in the series “Extinction coefficient” (at 675 nm), the extinction coefficient is on record as 19,522.
As for `CCCCCCCc1cc(NC)c2c(c1O)C(=O)c1c(O)c(CCCCCCC)cc(NC)c1C2=O` [Example 5c, 2,7-di-n-heptyl-4,5-di(methylamino)chrysazin], the “Order Parameter (S)” value in series [1] is 0.67. The molecule further gave a Solubility in series [2] of 0.5 wt %. Besides, the extinction coefficient in “Extinction coefficient” (at 575 nm) is recorded as 22,100.
In the case of `CCCCCc1cc(N)c2c(c1O)C(=O)c1c(O)c(CCCCC)cc(NC)c1C2=O` [Example 6b], the “Order Parameter (S)” value in series [1] came out at 0.72. The Solubility in series [2] was 3.3 wt %. Further, the extinction coefficient in the series “Extinction coefficient” (at 675 nm) is listed as 23,785.
In the case of `CCCCCc1cc(NC)c2c(c1O)C(=O)c1c(O)c(CCCCC)cc(NC)c1C2=O` [Example 6c], the “Order Parameter (S)” value in series [1] is 0.66. In addition, the Solubility in series [2] was 0.9 wt %.
As to `CNc1cc(CC(C)C)c(O)c2c1C(=O)c1c(NC)cc(CC(C)C)c(O)c1C2=O` [iso-propyl, Comparative Dye, TABLE III], the “Order Parameter (S)” value in series [1] was 0.54.
Still for that read-out and setting: for `CNc1cc(CC(C)C)c(O)c2c1C(=O)c1c(N)cc(CC(C)C)c(O)c1C2=O` [iso-propyl, Comparative Dye, TABLE II] the value was 0.63.
In turn, `CCCCCCCc1cc(N)c2c(c1O)C(=O)c1c(N)cc(CCCCCCC)c(O)c1C2=O` [n-hexyl, Comparative Dyes (Formula B), reference compound] gave a Solubility in series [2] below 0.01 wt %.
